Assays:
Format in all cases: in vivo
Details in all cases: evaluated after 13 days
[1] = test system: Abutilon theophrasti (ABUTH); assay: Pre-emergence herbicidal glasshouse test (Table B1)
In short: (§1)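 Potted plants, glasshouse 24/16° C, 14 h light, 65% RH; spray at 1 d (pre) or 8 d (post) post-sowing; 500 g/h default; acetone/water 50:50 + 0.5% Tween 20. Damage read at 13 d, scored 1–5 (5=80-100%, 1=0-19%).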

[2] = test system: Amaranthus retoflexus (AMARE); assay: as above
In short: as §1

[3] = test system: Echinochloa crus-galh (ECHCG); assay: as above
In short: as §1

[4] = test system: Ipomoea hederacea (IPOHE); assay: as above
In short: as §1

[5] = test system: Setaria faberi (SETFA); assay: as above
In short: as §1

[6] = test system: Abutilon theophrasti (ABUTH); assay: Post-emergence herbicidal glasshouse test (Table B1)
In short: as §1

[7] = test system: Amaranthus retoflexus (AMARE); assay: as above
In short: as §1

[8] = test system: Echinochloa crus-galh (ECHCG); assay: as above
In short: as §1

[9] = test system: Ipomoea hederacea (IPOHE); assay: as above
In short: as §1

[10] = test system: Setaria faberi (SETFA); assay: as above
In short: as §1

| SMILES | PRE Application ABUTH, percentage damage on five-point scale ([1]; applied at 500 g/h) | PRE Application AMARE, percentage damage on five-point scale ([2]; applied at 500 g/h) | PRE Application ECHCG, percentage damage on five-point scale ([3]; applied at 500 g/h) | PRE Application IPOHE, percentage damage on five-point scale ([4]; applied) | PRE Application SETFA, percentage damage on five-point scale ([5]; applied at 500 g/h) | POST Application ABUTH, percentage damage on five-point scale ([6]; applied at 500 g/h) | POST Application AMARE, percentage damage on five-point scale ([7]; applied at 500 g/h) | POST Application ECHCG, percentage damage on five-point scale ([8]; applied at 500 g/h) | POST Application IPOHE, percentage damage on five-point scale ([9]; applied at 500 g/h) | POST Application SETFA, percentage damage on five-point scale ([10]; applied at 500 g/h) | PRE Application ABUTH, percentage damage on five-point scale ([1]; applied at 125 g/ha) | PRE Application AMARE, percentage damage on five-point scale ([2]; applied at 125 g/ha) | PRE Application ECHCG, percentage damage on five-point scale ([3]; applied at 125 g/ha) | PRE Application IPOHE, percentage damage on five-point scale ([4]; applied at 125 g/ha) | POST Application ABUTH, percentage damage on five-point scale ([6]; applied at 125 g/ha) | POST Application AMARE, percentage damage on five-point scale ([7]; applied at 125 g/ha) | POST Application ECHCG, percentage damage on five-point scale ([8]; applied at 125 g/ha) | POST Application IPOHE, percentage damage on five-point scale ([9]; applied at 125 g/ha) | POST Application SETFA, percentage damage on five-point scale ([10]; applied at 125 g/ha) | PRE Application SETFA, percentage damage on five-point scale ([5]; applied at 125 g/ha) |
| --- | --- | --- | --- | --- | --- | --- | --- | --- | --- | --- | --- | --- | --- | --- | --- | --- | --- | --- | --- | --- |
| CN(C)c1c(OC(F)(F)F)ccc(C(=O)Nc2nnnn2C)c1Cl [Compound 1.001] | 5 (5=80-100%) | 5 (5=80-100%) | 5 (5=80-100%) | 5 (5=80-100%) | 5 (5=80-100%) | 5 (5=80-100%) | 5 (5=80-100%) | 5 (5=80-100%) | 5 (5=80-100%) | 5 (5=80-100%) | – | – | – | – | – | – | – | – | – | – |
| CC(=O)N(C)c1c(OC(F)(F)F)ccc(C(=O)Nc2nnnn2C)c1Cl [Compound 1.003] | 5 (5=80-100%) | 5 (5=80-100%) | 5 (5=80-100%) | 1 (1=0-19%) | 5 (5=80-100%) | 5 (5=80-100%) | 5 (5=80-100%) | 5 (5=80-100%) | 5 (5=80-100%) | – | – | – | – | – | – | – | – | – | – | – |
| CNc1c(OC(F)(F)F)ccc(C(=O)Nc2nnnn2C)c1Cl [Compound 1.005] | 5 (5=80-100%) | 5 (5=80-100%) | 5 (5=80-100%) | 5 (5=80-100%) | 5 (5=80-100%) | 5 (5=80-100%) | 5 (5=80-100%) | 5 (5=80-100%) | 5 (5=80-100%) | 5 (5=80-100%) | – | – | – | – | – | – | – | – | – | – |
| Cn1nnnc1NC(=O)c1ccc(OC(F)(F)F)c(NC(=O)C2CC2)c1Cl [Compound 1.006, 2-chloro-3-(cyclopropanecarbonylamino)-N-(1-methyltetrazol-5-yl)-4-(trifluoromethoxy)benzamide] | 5 (5=80-100%) | 5 (5=80-100%) | 5 (5=80-100%) | 2 (2=20-39%) | 5 (5=80-100%) | 5 (5=80-100%) | 5 (5=80-100%) | 5 (5=80-100%) | 5 (5=80-100%) | 5 (5=80-100%) | – | – | – | – | – | – | – | – | – | – |
| CC(C)CC(=O)Nc1c(OC(F)(F)F)ccc(C(=O)Nc2nnnn2C)c1Cl [Compound 1.008] | 5 (5=80-100%) | 5 (5=80-100%) | 5 (5=80-100%) | 3 (3=40-59%) | 4 (4=60-79%) | 5 (5=80-100%) | 5 (5=80-100%) | 5 (5=80-100%) | 5 (5=80-100%) | 5 (5=80-100%) | – | – | – | – | – | – | – | – | – | – |
| Cc1ncc(C(=O)Nc2c(OC(F)(F)F)ccc(C(=O)Nc3nnnn3C)c2Cl)s1 [Compound 1.010] | 5 (5=80-100%) | 5 (5=80-100%) | 1 (1=0-19%) | 2 (2=20-39%) | 2 (2=20-39%) | 5 (5=80-100%) | – | 5 (5=80-100%) | 5 (5=80-100%) | 5 (5=80-100%) | – | – | – | – | – | – | – | – | – | – |
| CCC(C)C(=O)Nc1c(OC(F)(F)F)ccc(C(=O)Nc2nnnn2C)c1Cl (stereo not shown) [Compound 1.055] | – | – | – | – | – | – | – | – | – | – | 5 (5=80-100%) | 5 (5=80-100%) | 5 (5=80-100%) | 4 (4=60-79%) | 5 (5=80-100%) | 5 (5=80-100%) | 5 (5=80-100%) | 4 (4=60-79%) | 5 (5=80-100%) | – |
| Cn1nnnc1NC(=O)c1ccc(OC(F)F)c(NC(=O)c2cccc(Cl)n2)c1Cl [Compound 1.083] | – | – | – | – | – | – | – | – | – | – | 5 (5=80-100%) | 5 (5=80-100%) | – | 3 (3=40-59%) | 4 (4=60-79%) | 4 (4=60-79%) | 2 (2=20-39%) | 4 (4=60-79%) | 4 (4=60-79%) | 4 (4=60-79%) |
| COc1cccc(C(=O)Nc2c(OC(F)F)ccc(C(=O)Nc3nnnn3C)c2Cl)n1 [Compound 1.085] | – | – | – | – | – | – | – | – | – | – | 5 (5=80-100%) | 4 (4=60-79%) | – | 3 (3=40-59%) | 4 (4=60-79%) | 4 (4=60-79%) | 4 (4=60-79%) | 4 (4=60-79%) | 4 (4=60-79%) | 3 (3=40-59%) |
| Cn1nnnc1NC(=O)c1ccc(OC(F)F)c(NC(=O)c2cc(Cl)ccn2)c1Cl [Compound 1.086] | – | – | – | – | – | – | – | – | – | – | 5 (5=80-100%) | 5 (5=80-100%) | – | 4 (4=60-79%) | 4 (4=60-79%) | 5 (5=80-100%) | 4 (4=60-79%) | 5 (5=80-100%) | 4 (4=60-79%) | 4 (4=60-79%) |
| Cn1nnnc1NC(=O)c1ccc(OC(F)F)c(NC(=O)c2ncc(Cl)cc2Cl)c1Cl [Compound 1.087] | – | – | – | – | – | – | – | – | – | – | 4 (4=60-79%) | 5 (5=80-100%) | 1 (1=0-19%) | 4 (4=60-79%) | 4 (4=60-79%) | 4 (4=60-79%) | – | 4 (4=60-79%) | 4 (4=60-79%) | 4 (4=60-79%) |
| Cn1nnnc1NC(=O)c1ccc(OC(F)F)c(NC(=O)c2nc(Cl)ccc2Cl)c1Cl [Compound 1.088] | – | – | – | – | – | – | – | – | – | – | 4 (4=60-79%) | 5 (5=80-100%) | – | 4 (4=60-79%) | 4 (4=60-79%) | 4 (4=60-79%) | 3 (3=40-59%) | 4 (4=60-79%) | 4 (4=60-79%) | 5 (5=80-100%) |
| Cn1nnnc1NC(=O)c1ccc(OC(F)F)c(NC(=O)c2ncc(F)cc2F)c1Cl [Compound 1.089] | – | – | – | – | – | – | – | – | – | – | 2 (2=20-39%) | 5 (5=80-100%) | – | 3 (3=40-59%) | 3 (3=40-59%) | 4 (4=60-79%) | 2 (2=20-39%) | 3 (3=40-59%) | 4 (4=60-79%) | 3 (3=40-59%) |
| CCn1nnnc1NC(=O)c1ccc(OC(F)(F)F)c(NC(=O)C(C)(C)C)c1Cl [Compound 1.106] | 5 (5=80-100%) | 5 (5=80-100%) | 5 (5=80-100%) | – | 5 (5=80-100%) | 5 (5=80-100%) | 5 (5=80-100%) | 5 (5=80-100%) | 5 (5=80-100%) | 5 (5=80-100%) | – | – | – | – | – | – | – | – | – | – |
